Measurements published in patent US20260240740A1, “MULTI-PHOTOPROTECTIVE COMPOUNDS AND USES THEREOF” (SKINOSIVE, priority 2022, published 2026).

How the values were obtained:
pig skin = test: UV protection ex vivo on pig skin by autofluorescence quenching
Description: UV Protection Performance of Compound #2 (OOD) UVB and UVA protections have been assessed ex vivo on pig skin by measuring the autofluorescence quenching. OOD (Compound #2), the mix of DHHB+OCR were solubilized at the same molar concentration in Dottisol (isosorbide dimethyl ether), covered 6.25 cm2 skin square and incubated 20 min or 2 hours at room temperatures, and then 7 mm skin punches were cut and placed in a black 96-well plate. UVB and UVA protections were measured after respectively an excitation at 300 nm and 355 nm and a fluorescence emission was read at 460 nm. DMSO was added on the pig skin before the reading of the residual fluorescence.
UVB and UVA protections have been assessed ex vivo on pig skin by measuring the autofluorescence quenching. BOO (Compound #5) and the mix of BEMT+OCR were solubilized at the same molar concentration in Dottisol (isosorbide dimethyl ether), covered 6.25 cm^2 skin square and incubated 4 hours at 34° C., washed or not with 10 mL Ethanol for 5 min, and then 7 mm diameter skin punches were cut and placed in a black 96-well plate. UVB and UVA protections were measured after respectively an excitation at 300 nm and 355 nm and a fluorescence emission was read at 460 nm.
UVB protection has been assessed ex vivo on pig skin by measuring the autofluorescence quenching. BOO (Compound #5), BOO-OM (Compound #6) and the mix of BEMT+OCR were solubilized at the same molar concentration in DMDA (dimethyl capramide), covered 6.25 cm2 skin square and incubated 2 hours at 34° C., washed or not with 10 mL Ethanol for 5 min, and then 7 mm diameter skin punches were cut and placed in a black 96-well plate. UVB protection was measured after respectively an excitation at 300 nm and a fluorescence emission was read at 460 nm.

[1] = tested on: polylysine matrix (non thiolated); test: Bio adhesion on polylysine matrix (non thiolated); conditions: overnight incubation in ethanol/PBS (90%/10%), washed 10 times with ethanol
Description: (§1) Polylysine and Polylysine enriched in SH by thiolation of primary amines using Traut's reagent were used for coating 96-well microplates. UV filters (BOO and BOO-OM) were incubated overnight under orbital agitation on the different matrices (n=3 for each condition) (uncoated wells were used as negative controls), in an ethanol/PBS (90%/10%) solution. After incubation, each microplate well was thoroughly washed 10 times with ethanol, before measuring UV absorbance. Whole UV/Visible absorbance spectrum from 220 to 1000 nm were measured in the center of each microplate well. In addition, specific UV absorbance at 310 nm was measured by matrix scan over the whole the well as a 10×10 matrix.

[2] = Solubility in sunscreen solvents; format: physicochemical; conditions: 50° C.
Description: Compound #2 (OOD) and a sunscreen solvent were weighed in a Becher. The Becher was placed on a magnetic stir plate, heated up to 50° C., and the solution was vigorously mixed with a bar magnet.
Compound #4 (OHD) and a sunscreen solvent were weighed in a Becher. The Becher was placed on a magnetic stir plate, heated up to 50° C., and the solution was vigorously mixed with a bar magnet.
Compound #5 (BOO) and a sunscreen solvent were weighed in a Becher. The Becher was placed on a magnetic stir plate, heated up to 50° C., and the solution was vigorously mixed with a bar magnet.
Compound #6 (BOO-OM) and a sunscreen solvent were weighed in a Becher. The Becher was placed on a magnetic stir plate, heated up to 50° C., and the solution was vigorously mixed with a bar magnet.

[3] = tested on: thiolated polylysine matrix; test: Bio adhesion on thiolated polylysine matrix (UV absorbance at 310 nm after ethanol washes); conditions: overnight incubation in ethanol/PBS (90%/10%), washed 10 times with ethanol
Description: as §1

[4] = UV absorbance profile: λmax in solvents, FLUOstar plate reader; format: physicochemical; conditions: for λmax double peak, first peak / λmax double peak, second peak: 50 μM
Description: Compound #2 (OOD), Univul A plus (DHHB)+Octocrylene (OCR) were dissolved in a solvent at the same concentration (125 μM).
Compound #4 (OHD), Univul A plus (DHHB)+Octocrylene (OCR) were dissolved in a solvent at the same concentration (125 μM).
Compound #5 (BOO) and BEMT (6,6′-(6-(4-methoxyphenyl)-1,3,5-triazine-2,4-diyl)bis(3-((2-ethylhexyl)oxy)phenol)=Tinosorb S)+Octocrylene (OCR) were dissolved in a solvent at the same concentration (50 μM).
UV Absorbance Profil of Compound #6 (BOO-OM) Compound #6 (BOO-OM) and BEMT (6,6′-(6-(4-methoxyphenyl)-1,3,5-triazine-2,4-diyl)bis(3-((2-ethylhexyl)oxy)phenol)=Tinosorb S)+Octocrylene (OCR) were dissolved in a solvent at the same concentration (50 μM).

## CCCCC(CC)COc1ccc(-c2nc(-c3ccc(OC)cc3)nc(-c3ccc(OCC(CC)CCCC)cc3OCCCCCCCCN3C(=O)C=CC3=O)n2)c(OCCCCCCCCNC(=O)C(C#N)=C(c2ccccc2)c2ccccc2)c1 (stereo not drawn) [Compound #6, 2-cyano-N-(8-(2-(4-(2-((8-(2,5-dioxo-2,5-dihydro-1H-pyrrol-1-yl)octyl)oxy)-4-((2-ethylhexyl)oxy)phenyl)-6-(4-methoxyphenyl)-1,3,5-triazin-2-yl)-5-((2-ethylhexyl)oxy)phenoxy)octyl)-3,3-diphenylacrylamide]
Pig skin; 2 h incubation, DMDA
  UVB protection of the pig skin compared to the mix OCR+BEMT: similar
Pig skin; conclusion from UVB protection after ethanol wash
  bio adhesive (pig skin, ethanol wash): is bio adhesive
Pig skin; pig skin autofluorescence after 2 h of incubation, DMDA (dimethyl capramide), Mean +/− SD, N = 3
  UVB Fluorescence (Ex300/Em460) No Wash: 40608 +/− 3466
Pig skin; pig skin autofluorescence after 2 h of incubation, DMDA, 10 mL Ethanol 5 min, Mean +/− SD, N = 3
  UVB Fluorescence (Ex300/Em460) EtOH Wash: 108875 +/− 4401
Pig skin; pig skin, 2 h incubation, DMDA
  UVB protection after ethanol wash compared to the initial protection before washing: reduced twice
[1]
  bioadhesion: no bioadhesion
[2]; Dimethyl capramide (Spectrasolv DMDA)
  soluble at ratio: 1/10
[2]; Dottisol (dimethyl isosorbide)
  soluble at ratio: ½
[2]; Dubdis (Diisopropyl sebacate)
  soluble at ratio: ½
[3]
  bio adhesion, UV absorbance at 310 nm: showed a bio adhesion
[4]; Dottisol
  λmax double peak, first peak: 290 nm
  λmax double peak, second peak: 307 nm
[4]; Dubdis
  λmax double peak, first peak: 289 nm
  λmax double peak, second peak: 309 nm
[4]; same molar concentration, Dubdis, same shift in Dottisol
  λmax absorbance shift in UVB versus the mix of BEMT-OCR: ≥ 20 nm
